Read-outs that look alike come from different tables or passages of the source.
How the values were obtained:
Puccinia triticina = experiment: Fungicidal activity: wheat brown rust (PUCCRT), disease control on wheat seedlings; format: in vivo, Puccinia triticina on wheat plants (variety Yuma); details: low volume application, 121.5 g/H
Description: Technical grades of materials were dissolved in acetone, which were then mixed with nine volumes of water (H2O) containing 110 ppm Triton X-100. The fungicide solutions were applied onto wheat seedlings using an automated booth sprayer to run-off. All sprayed plants were allowed to air dry prior to further handling. All fungicides were evaluated using the aforementioned method for their activity vs. all target diseases, unless stated otherwise. Wheat leaf blotch and brown rust activity were also evaluated using track spray applications, in which case the fungicides were formulated as EC formulations, containing 0.1% Trycol 5941 in the spray solutions. Evaluation of Fungicidal Activity: Wheat Brown Rust (Puccinia triticina; Synonym: Puccinia recondita f. Sp. Tritici; Bayer Code PUCCRT) Wheat plants (variety Yuma) were grown from seed in a greenhouse in 50% mineral soil/50% soil-less Metro mix until the first leaf was fully emerged, with 7-10 seedlings per pot. These plants were inoculated with an aqueous spore suspension of Puccinia triticina either prior to or after fungicide treatments. After inoculation the plants were kept in a dark dew room at 22° C. with 100% relative humidity overnight to permit spores to germinate and infect the leaf. The plants were then transferred to a greenhouse set at 24° C. for disease to develop. Fungicide formulation, application and disease assessment followed the procedures as described in the Example A. The results of the evalution are shown below in Table 4.

Phakopsora pachyrhizi = experiment: Fungicidal activity: Asian soybean rust (PHAKPA), disease control on soybean seedlings; format: in vivo; details: 24 h, 1 day protectant, read-out: PHAKPA 1DP disease control at 25 ppm
Description: Evaluation of Fungicidal Activity: Asian Soybean Rust (Phakopsora Pachyrhizi; Bayer Code PHAKPA)
Technical grades of materials were dissolved in acetone, which were then mixed with nine volumes of H2O containing 0.011% Tween 20. The fungicide solutions were applied onto soybean seedlings using an automated booth sprayer to run-off. All sprayed plants were allowed to air dry prior to further handling.
Soybean plants (variety Williams 82) were grown in soil-less Metro mix, with one plant per pot. Two weeks old seedlings were used for testing. Plants were inoculated either 3 days prior to or 1 day after fungicide treatments. Plants were incubated for 24 h in a dark dew room at 22° C. and 100% relative humidity then transferred to a growth room at 23° C. for disease to develop. Disease severity was assessed on the sprayed leaves.

Zymoseptoria tritici = experiment: Fungicidal activity: leaf blotch of wheat (SEPTTR), disease control on wheat seedlings; format: in vivo, Zymoseptoria tritici on wheat plants (variety Yuma); details: low volume application, 121.5 g/H
Description: Evaluation of Fungicidal Activity: Leaf Blotch of Wheat (Zymoseptoria Tritici; Bayer Code […]) Technical grades of materials were dissolved in acetone, which were then mixed with nine volumes of water (H2O) containing 110 ppm Triton X-100. The fungicide solutions were applied onto wheat seedlings using an automated booth sprayer to run-off. All sprayed plants were allowed to air dry prior to further handling. All fungicides were evaluated using the aforementioned method for their activity vs. all target diseases, unless stated otherwise. Wheat leaf blotch and brown rust activity were also evaluated using track spray applications, in which case the fungicides were formulated as EC formulations, containing 0.1% Trycol 5941 in the spray solutions. Wheat plants (variety Yuma) were grown from seed in a greenhouse in 50% mineral soil/50% soil-less Metro mix until the first leaf was fully emerged, with 7-10 seedlings per pot. These plants were inoculated with an aqueous spore suspension of Zymoseptoria tritici either prior to or after fungicide treatments. After inoculation the plants were kept in 100% relative humidity (one day in a dark dew chamber followed by two to three days in a lighted dew chamber at 20° C.) to permit spores to germinate and infect the leaf. The plants were then transferred to a greenhouse set at 20° C. for disease to develop. When disease symptoms were fully expressed on the 1st leaves of untreated plants, infection levels were assessed on a scale of 0 to 100 percent disease severity. Percent disease control was calculated using the ratio of disease severity on treated plants relative to untreated plants.

[1] = 72 h, 3 day curative, read-out: PUCCRT 3DC disease control, LV activity at 121.5 g/H
[2] = 24 h, 1 day protectant, read-out: SEPTTR 1DP disease control, LV activity at 121.5 g/H
[3] = 72 h, 3 day curative, read-out: SEPTTR 3DC disease control, LV activity at 121.5 g/H
[4] = 24 h, 1 day protectant, read-out: PUCCRT 1DP disease control, LV activity at 121.5 g/H

| Structure (SMILES) | pest or weed control at 121.5 g/ha (Puccinia triticina; [1]) [%] | pest or weed control at 25 ppm (Phakopsora pachyrhizi) [%] | pest or weed control at 121.5 g/ha (Zymoseptoria tritici; [2]) [%] | pest or weed control at 121.5 g/ha (Zymoseptoria tritici; [3]) [%] | pest or weed control at 121.5 g/ha (Puccinia triticina; [4]) [%] |
| --- | --- | --- | --- | --- | --- |
| COc1ccnc(C(=S)N[C@@H](C)C(=O)O[C@H](CC(C)C)[C@H](C)Oc2ccccc2)c1OC(C)=O [Compound 40] | ≤ 80 | ≤ 80 | – | – | – |
| COc1ccnc(C(=S)N[C@@H](C)C(=O)O[C@@H](C)C(c2ccc(Cl)cc2)c2ccc(Cl)cc2)c1OC(C)=O [Compound 47] | ≤ 80 | – | > 80 | > 80 | > 80 |
| COc1ccnc(C(=S)N[C@@H](C)C(=O)O[C@@H](C)C(c2ccc(C)cc2C)c2ccc(C)cc2C)c1OC(C)=O [Compound 48] | – | – | > 80 | > 80 | > 80 |
| COc1ccnc(C(=S)N[C@@H](C)C(=O)O[C@@H](C)[C@H](Oc2ccc(Cl)cc2Cl)c2ccccc2)c1OC(C)=O [Compound 49] | – | – | ≤ 80 | – | ≤ 80 |
| COc1ccnc(C(=S)N[C@@H](C)C(=O)O[C@@H](C)C(c2ccc(C)cc2)c2ccc(C)cc2)c1OC(C)=O [Compound 50] | > 80 | – | > 80 | > 80 | > 80 |
| COc1ccnc(C(=S)N[C@@H](C)C(=O)O[C@@H](C)[C@@H](c2ccccc2)c2ccc(F)cc2)c1OC(C)=O [Compound 51] | ≤ 80 | – | > 80 | > 80 | > 80 |
| COc1cc(Cl)ccc1C(c1ccc(Cl)cc1OC)[C@H](C)OC(=O)[C@H](C)NC(=S)c1nccc(OC)c1OC(C)=O [Compound 52] | ≤ 80 | – | > 80 | > 80 | > 80 |
| COc1ccc(C(c2ccc(OC)cc2F)[C@H](C)OC(=O)[C@H](C)NC(=S)c2nccc(OC)c2OC(C)=O)c(F)c1 [Compound 53] | ≤ 80 | – | > 80 | > 80 | > 80 |
| COc1ccccc1C(c1ccccc1OC)[C@H](C)OC(=O)[C@H](C)NC(=S)c1nccc(OC)c1OC(C)=O [Compound 54] | – | – | > 80 | > 80 | > 80 |
| COc1ccnc(C(=S)N[C@@H](C)C(=O)O[C@H](C(C)C)[C@H](C)Oc2ccc(C)cc2)c1OC(C)=O [Compound 56] | > 80 | – | ≤ 80 | ≤ 80 | > 80 |
| COc1ccnc(C(=S)N[C@@H](C)C(=O)O[C@@H](C)[C@H](Oc2ccccc2Cl)c2ccccc2)c1OC(C)=O [Compound 57, (1R,2S)-1-(2-chlorophenoxy)-1-phenylpropan-2-yl (3-acetoxy-4-methoxypyridine-2-carbonothioyl)-L-alaninate] | ≤ 80 | – | > 80 | > 80 | > 80 |
| COc1ccc(O[C@@H](C)[C@H](OC(=O)[C@H](C)NC(=S)c2nccc(OC)c2OC(C)=O)C(C)C)cc1 [Compound 58] | > 80 | – | > 80 | > 80 | > 80 |

Source: US10172358B2, “Thiopicolinamide compounds with fungicidal activity” (Dow AgroSciences LLC, priority 2016, dated 2019)
